Results from patent US12521375B2, “Pharmaceutical composition for treating fatty liver disease” (Shionogi & Co., Ltd., priority 2020, dated 2026).

Key:
recombinant human ACC1 = recombinant human ACC1 (Homo sapiens (Human), UniProt Q13085); assay: Measurement of inhibitory activity of human ACC1; format: biochemical; conditions: read-out: IC50 hACC1
Text: A cDNA encoding human ACC1 protein (1 amino acid residue to 2346 amino acid residues from the N-terminus) was cloned from a human liver cDNA library (BioChain Institute Inc.), myc tag and His-tag sequences were introduced at the 3′ end, and then inserted into pIEXBAC3 (Novagen). A recombinant baculovirus was produced in accordance with the protocol for FlashBACGOLD (Oxford Expression Technologies Ltd.), and Sf-9 cells were infected therewith to express human ACC1 protein. The recovered cells were crushed, filtered through a filter, and then subjected to Ni affinity chromatography and anion exchange chromatography. Fractions containing human ACC1 protein were collected to obtain recombinant human ACC1.
(§1) The recombinant human ACC1 and the recombinant human ACC2 obtained from the above Preparation Examples were preincubated in an assay buffer (50 mM HEPES-KOH (pH 7.4), 10 mM magnesium chloride, 6 to 10 mM potassium citrate, 4 mM reduced glutathione, and 1.5 mg/ml bovine serum albumin) for 1 hour. Then, 5 μL of the pre-incubated enzyme solution and 5 μL of a substrate solution (50 mM HEPES-KOH (pH 7.4), 1 mM ATP, 0.8 mM acetyl-CoA, and 25 to 50 mM potassium bicarbonate) were added to a 384-well microplate into which 0.2 μL of each of solutions of the compound of the present invention (DMSO) had been dispensed, and the mixture was centrifuged and shaken, and then incubated in a wet box at room temperature for 1 to 3 hours. After incubation, the enzymatic reaction was stopped by addition of EDTA, and then the compound was co-crystallized with an α-cyano-4-hydroxy cinnamic acid (CHCA) matrix on a MALDI target plate, and measurement was performed in a reflector negative mode using a matrix-assisted laser desorption ionization-time-of-flight mass spectrometer (MALDI-TOF MS). Deprotonated ions of the substrate acetyl-CoA (AcCoA) and the reaction product malonyl-CoA (MalCoA) were detected, and the intensity of each signal was used to calculate a conversion rate to malonyl-CoA […], i.e., intensity of [MalCoA-H]-/(intensity of [MalCoA-H]-+intensity of [AcCoA-H]-). […] The potassium citrate concentration in the assay buffer, the potassium bicarbonate concentration in the substrate solution, and the incubation time were adjusted within the above concentrations or reaction times for each lot of the enzyme to be used.

Tissue distribution test = format: in vivo, Crl:CD (SD) rats; conditions: rats, intravenous 0.5 mg/kg, 30 minutes after administration
Procedure: To 8-week-old male Crl:CD (SD) rats, the compound of the present invention was intravenously administered at a dose of 0.5 mg/mL/kg under non-fasted conditions, and 30 minutes after administration, the rats were killed by exsanguination through whole blood collection from the abdominal aorta under anesthesia. Then, the liver and muscles were removed, and a 25% homogenate was prepared with distilled water. The obtained blood was centrifuged, and plasma was then obtained. Then, control plasma and control tissue homogenate were added to the tissue homogenate sample and the plasma sample, respectively, at 1:1, and each sample was measured using LC/MS/MS. The measured area ratio (tissue/plasma) obtained was used as a tissue Kp value. For compound I-12, the value was 6.10 in the liver and 1.29 in muscles, and for compound I-13, the value was 4.06 in the liver and 0.918 in muscles. Therefore, the compound of the present invention has a property of being distributed in the liver and muscles in vivo.

recombinant human ACC2 = recombinant human ACC2 (Homo sapiens (Human), UniProt O00763); assay: Measurement of inhibitory activity of human ACC2; format: biochemical; conditions: read-out: IC50 hACC2
Text: A cDNA encoding human ACC2 protein (27 amino acid residues to 2458 amino acid residues from the N-terminus) was cloned from a human kidney cDNA library (Clontech Laboratories, Inc.), a His-tag sequence was introduced at the 5′ end, and then inserted into pFastBac1 (Invitrogen). A recombinant baculovirus was produced in accordance with the protocol for a Bac-to-Bac baculovirus expression system (Invitrogen), and Sf-9 cells were infected therewith to express human ACC2 protein. The recovered cells were crushed, filtered through a filter, and then subjected to Ni affinity chromatography and anion exchange chromatography. Fractions containing human ACC2 protein were collected to obtain recombinant human ACC2.
as §1, with “Then, 5 μL of the pre-incubated enzyme solution and 5 μL of a substrate solution (50 mM HEPES-KOH (pH 7.4), 1 mM ATP, 0.8 mM acetyl-CoA, and 25 to 50 mM potassium bicarbonate) were added to a 384-well microplate into which 0.2 μL of each of solutions of the compound of the present invention (DMSO) had been dispensed, and the mixture was centrifuged and shaken, and then incubated in a wet box at room temperature for 1 to 3 hours.” left out

Chain of recombinant human ACC2 (O00763 27-2458): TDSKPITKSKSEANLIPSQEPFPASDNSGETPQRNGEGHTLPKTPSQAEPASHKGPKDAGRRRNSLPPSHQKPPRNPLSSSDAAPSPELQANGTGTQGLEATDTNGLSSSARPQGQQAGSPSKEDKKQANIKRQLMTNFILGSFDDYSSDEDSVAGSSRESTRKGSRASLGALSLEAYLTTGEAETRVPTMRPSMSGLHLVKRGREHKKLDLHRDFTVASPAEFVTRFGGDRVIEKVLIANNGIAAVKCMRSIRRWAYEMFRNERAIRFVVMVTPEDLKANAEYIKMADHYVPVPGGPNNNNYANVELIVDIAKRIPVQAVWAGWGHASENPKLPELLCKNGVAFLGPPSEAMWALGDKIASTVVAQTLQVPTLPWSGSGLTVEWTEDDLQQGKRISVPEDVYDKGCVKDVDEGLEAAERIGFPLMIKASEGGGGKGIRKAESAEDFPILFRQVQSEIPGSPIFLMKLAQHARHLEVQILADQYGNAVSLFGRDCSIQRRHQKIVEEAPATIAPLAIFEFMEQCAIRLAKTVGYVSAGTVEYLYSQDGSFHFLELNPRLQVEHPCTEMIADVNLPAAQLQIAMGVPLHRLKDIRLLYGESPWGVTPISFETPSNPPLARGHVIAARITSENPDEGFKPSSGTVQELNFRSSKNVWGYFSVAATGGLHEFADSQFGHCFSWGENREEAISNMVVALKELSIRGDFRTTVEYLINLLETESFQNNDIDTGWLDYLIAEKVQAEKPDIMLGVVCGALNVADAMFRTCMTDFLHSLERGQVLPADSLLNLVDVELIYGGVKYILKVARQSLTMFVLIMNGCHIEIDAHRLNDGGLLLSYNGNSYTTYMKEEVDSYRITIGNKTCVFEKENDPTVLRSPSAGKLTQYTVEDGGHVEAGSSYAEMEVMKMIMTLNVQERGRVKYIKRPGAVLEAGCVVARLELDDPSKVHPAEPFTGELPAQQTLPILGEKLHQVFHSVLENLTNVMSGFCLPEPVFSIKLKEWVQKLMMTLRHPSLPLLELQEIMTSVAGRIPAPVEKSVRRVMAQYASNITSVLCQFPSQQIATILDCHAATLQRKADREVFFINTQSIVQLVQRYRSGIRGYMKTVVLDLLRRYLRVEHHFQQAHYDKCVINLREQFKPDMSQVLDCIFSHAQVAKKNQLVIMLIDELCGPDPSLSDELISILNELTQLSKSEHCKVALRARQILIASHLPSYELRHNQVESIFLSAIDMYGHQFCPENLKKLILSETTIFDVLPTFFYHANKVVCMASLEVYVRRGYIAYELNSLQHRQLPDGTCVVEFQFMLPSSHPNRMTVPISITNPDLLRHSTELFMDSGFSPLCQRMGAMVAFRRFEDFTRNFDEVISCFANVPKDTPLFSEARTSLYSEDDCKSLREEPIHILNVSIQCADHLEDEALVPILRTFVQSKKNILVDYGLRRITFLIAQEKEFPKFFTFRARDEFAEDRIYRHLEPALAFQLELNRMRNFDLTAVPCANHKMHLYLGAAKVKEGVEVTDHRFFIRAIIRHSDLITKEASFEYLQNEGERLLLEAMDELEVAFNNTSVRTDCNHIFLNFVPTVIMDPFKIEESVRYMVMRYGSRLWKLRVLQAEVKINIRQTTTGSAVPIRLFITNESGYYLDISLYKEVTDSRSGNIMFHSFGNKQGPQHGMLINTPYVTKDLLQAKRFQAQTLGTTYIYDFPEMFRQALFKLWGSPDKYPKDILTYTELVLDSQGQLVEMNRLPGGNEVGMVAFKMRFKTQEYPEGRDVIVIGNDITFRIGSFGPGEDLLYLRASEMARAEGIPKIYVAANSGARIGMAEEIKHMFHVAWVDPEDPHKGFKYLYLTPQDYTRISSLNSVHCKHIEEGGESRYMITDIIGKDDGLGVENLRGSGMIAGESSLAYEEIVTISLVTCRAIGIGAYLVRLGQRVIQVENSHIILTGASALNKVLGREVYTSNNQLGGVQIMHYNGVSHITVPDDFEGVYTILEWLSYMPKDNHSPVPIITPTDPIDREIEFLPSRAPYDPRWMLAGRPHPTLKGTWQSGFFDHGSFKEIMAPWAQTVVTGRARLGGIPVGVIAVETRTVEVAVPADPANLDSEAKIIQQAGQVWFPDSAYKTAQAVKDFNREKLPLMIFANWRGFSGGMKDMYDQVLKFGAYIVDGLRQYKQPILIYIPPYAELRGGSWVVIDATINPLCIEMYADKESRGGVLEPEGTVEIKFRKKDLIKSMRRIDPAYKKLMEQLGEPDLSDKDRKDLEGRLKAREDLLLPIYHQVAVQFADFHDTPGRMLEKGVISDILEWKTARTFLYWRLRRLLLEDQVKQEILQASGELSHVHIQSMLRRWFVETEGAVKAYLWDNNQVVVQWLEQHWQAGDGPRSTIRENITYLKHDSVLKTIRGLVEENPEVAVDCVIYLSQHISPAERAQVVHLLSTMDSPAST

Row | IC50 (recombinant human ACC1) [µM] | tissue Kp value (tissue/plasma), liver (Tissue distribution test) | tissue Kp value (tissue/plasma), muscles (Tissue distribution test) | IC50 (recombinant human ACC2) [nM] | Structure (SMILES)
1 | 6.9 | 6.10 | 1.29 | 5.6 | C[C@@H](CO[C@H]1CC[C@H](Oc2nc3c(F)cc(OC4CC4)cc3n2C)CC1)NC(N)=O [Compound I-12]
2 | 0.91 | 4.06 | 0.918 | 6.6 | CC(=O)N[C@@H](C)CC[C@H]1OC[C@H](Oc2nc3c(F)cc(OC4CC4)cc3n2C)CO1 [Compound I-13]
